Holding throughout (experiment): relative viability (nuclei count vs DMSO), 5 days (fraction); higher = more cells survive
Compound in one experiment: COC1=C(C=C(C=C1)C2=CC3=NC=CN3C(=N2)NC4=C(C=CC=N4)C(=O)N)OC [BAY61-3606]
The method, boiled down:
(§1)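 MetaXpress counted nuclei in 4× images of lung cancer cell lines that had been fixed, permeabilised and Hoechst-stained in one step. Before that, cells in 1536-well plates were kept overnight at 37 °C, pinned with five √10-spaced library-drug doses on vehicle-anchored plates, and cultured 5 days without medium change. Viability takes treated-well nuclei over vehicle-well nuclei and uses the median across plates. Plates were accepted only at control CV below 25% and at least one doubling.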

Compound in the next experiment: COc1cccc2c1C(=O)c1c(O)c3c(c(O)c1C2=O)C[C@@](O)(C(=O)CO)C[C@@H]3O[C@H]1C[C@H](N)[C@H](O)[C@H](C)O1 [Doxorubicin]
Put shortly:
as §1

Compound in the experiment “BAY61-3606 + Trametinib”: COC1=C(C=C(C=C1)C2=CC3=NC=CN3C(=N2)NC4=C(C=CC=N4)C(=O)N)OC [BAY61-3606] + CC(=O)Nc1cccc(-n2c(=O)n(C3CC3)c(=O)c3c(Nc4ccc(I)cc4F)n(C)c(=O)c(C)c32)c1 [Trametinib] (partner 0.02 µM)
The method, boiled down: (§2)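 Dosing by pin tool came one day after lung cancer cell lines were seeded in 1536-well plates, using either one drug or a fixed anchor-drug dose plus five library-drug doses (not always all listed) in √10 steps. After 5 days, nuclei were counted on 4× images. Relative viability is treated-well nuclei count divided by vehicle-well nuclei count, and values are medians of duplicate plates.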

Compound in the experiment “BAY61-3606 + Foretinib”: COC1=C(C=C(C=C1)C2=CC3=NC=CN3C(=N2)NC4=C(C=CC=N4)C(=O)N)OC [BAY61-3606] + COc1cc2c(Oc3ccc(NC(=O)C4(C(=O)Nc5ccc(F)cc5)CC4)cc3F)ccnc2cc1OCCCN1CCOCC1 [Foretinib] (partner 0.25 µM)
The method, boiled down:
as §2

On to UMC-11, for which the relative viability in the experiment with BAY61-3606 (0.02 µM) was 1.1; in the experiment with BAY61-3606 (0.06325 µM), 1.05; with BAY61-3606 (0.2 µM), 0.955; with BAY61-3606 (0.6325 µM), 1.06; with BAY61-3606 (2 µM) it was 0.991; in the experiment with Doxorubicin (0.001 µM), 0.974. Besides, the relative viability with Doxorubicin (0.003162 µM) worked out at 1.06; with Doxorubicin (0.01 µM), 0.913; with Doxorubicin (0.03162 µM), 0.692; with Doxorubicin (0.1 µM), 0.715; with BAY61-3606 + Trametinib (first compound 0.02 µM), 0.823; with BAY61-3606 + Trametinib (first compound 0.06325 µM) it was 0.63. The relative viability turned out to be 0.509 with BAY61-3606 + Trametinib (first compound 0.2 µM); 0.759 with BAY61-3606 + Trametinib (first compound 0.6325 µM); 0.688 with BAY61-3606 + Trametinib (first compound 2 µM); 1.23 in the experiment with BAY61-3606 + Foretinib (first compound 0.02 µM); 1.12 with BAY61-3606 + Foretinib (first compound 0.06325 µM); 1.05 with BAY61-3606 + Foretinib (first compound 0.2 µM). Further, the relative viability with BAY61-3606 + Foretinib (first compound 0.6325 µM) stood at 1.15; with BAY61-3606 + Foretinib (first compound 2 µM), 1.02.

The values above are taken from the supplement of paper PMC10307832.
